Experiments:
[1] = DRUGMATRIX: GABAA, Chloride Channel, TBOB radioligand binding (ligand: [3H] TBOB); format: cell membranes, Rattus norvegicus, Wistar, Cerebral cortex, Membrane; details: Not Active = under 50% inhibition at 10 µM
D(4) dopamine receptor = target: T1, D(4) dopamine receptor (Homo sapiens, UniProt P21917); assay: DRUGMATRIX: Dopamine D4.2 radioligand binding (ligand: [3H] Spiperone); format: cell membranes, CHO-K1, Membrane; details: cho-k1; Not Active = under 50% inhibition at 10 µM
T1 sequence (P21917 whole entry): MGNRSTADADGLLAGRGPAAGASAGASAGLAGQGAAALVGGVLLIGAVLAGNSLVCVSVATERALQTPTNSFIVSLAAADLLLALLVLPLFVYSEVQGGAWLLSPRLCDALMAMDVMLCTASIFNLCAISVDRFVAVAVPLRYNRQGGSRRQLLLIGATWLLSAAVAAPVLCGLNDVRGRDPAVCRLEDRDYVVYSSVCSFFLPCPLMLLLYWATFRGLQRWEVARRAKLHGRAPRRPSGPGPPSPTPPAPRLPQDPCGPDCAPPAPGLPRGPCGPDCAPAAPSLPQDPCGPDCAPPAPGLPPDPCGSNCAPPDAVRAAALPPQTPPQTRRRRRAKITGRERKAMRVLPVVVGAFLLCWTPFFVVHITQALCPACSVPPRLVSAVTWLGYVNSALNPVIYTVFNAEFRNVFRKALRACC

[2] = target: Beta-3 adrenergic receptor (Homo sapiens, UniProt P13945); assay: DRUGMATRIX: Adrenergic beta3 radioligand binding (ligand: [125I] Cyanopindolol); format: cell membranes, HEK293, Membrane; details: hek293; Not Active = under 50% inhibition at 10 µM
D(1A) dopamine receptor = D(1A) dopamine receptor (Homo sapiens, UniProt P21728); assay: DRUGMATRIX: Dopamine D1 radioligand binding (ligand: [3H] SCH-23390); format: cell membranes, CHO, Membrane; details: Not Active = under 50% inhibition at 10 µM
[3] = DRUGMATRIX: Purinergic P2X radioligand binding (ligand: [3H] alpha, beta-Methylene-ATP); format: cell membranes, Oryctolagus cuniculus, New Zealand albino, Urinary bladder, Membrane; details: Not Active = under 50% inhibition at 10 µM
[4] = target: C-C chemokine receptor type 5 (Homo sapiens, UniProt P51681); format: cell membranes, Membrane; details: hek293; note: in other assays of this panel Not Active means under 50% inhibition at 10 µM
[5] = DRUGMATRIX: ATPase, Na+/K+ enzyme inhibition (substrate: ATP); format: tissue-based, Sus scrofa, Heart; details: Not Active = under 50% inhibition at 10 µM

Sequence of Beta-3 adrenergic receptor (P13945 whole entry): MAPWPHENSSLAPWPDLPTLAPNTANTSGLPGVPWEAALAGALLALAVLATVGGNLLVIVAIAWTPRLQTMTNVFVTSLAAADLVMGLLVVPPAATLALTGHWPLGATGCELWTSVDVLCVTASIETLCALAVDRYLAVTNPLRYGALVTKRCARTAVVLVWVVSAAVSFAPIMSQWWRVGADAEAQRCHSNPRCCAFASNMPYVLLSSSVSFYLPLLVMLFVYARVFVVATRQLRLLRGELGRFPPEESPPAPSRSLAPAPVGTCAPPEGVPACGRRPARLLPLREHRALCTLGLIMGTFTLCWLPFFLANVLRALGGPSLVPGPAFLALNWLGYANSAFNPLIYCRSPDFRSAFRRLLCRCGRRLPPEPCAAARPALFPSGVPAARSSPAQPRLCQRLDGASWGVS
Sequence of C-C chemokine receptor type 5 (P51681 whole entry): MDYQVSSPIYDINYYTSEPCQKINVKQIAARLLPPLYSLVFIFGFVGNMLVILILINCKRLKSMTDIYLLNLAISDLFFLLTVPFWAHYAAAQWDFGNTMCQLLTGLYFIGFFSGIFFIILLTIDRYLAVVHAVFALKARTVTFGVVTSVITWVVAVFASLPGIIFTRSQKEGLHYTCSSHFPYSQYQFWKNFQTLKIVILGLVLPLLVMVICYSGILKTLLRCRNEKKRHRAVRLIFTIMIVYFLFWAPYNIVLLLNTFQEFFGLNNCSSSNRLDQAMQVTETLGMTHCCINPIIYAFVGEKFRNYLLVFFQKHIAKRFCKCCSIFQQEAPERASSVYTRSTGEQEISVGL
Sequence of D(1A) dopamine receptor (P21728 whole entry): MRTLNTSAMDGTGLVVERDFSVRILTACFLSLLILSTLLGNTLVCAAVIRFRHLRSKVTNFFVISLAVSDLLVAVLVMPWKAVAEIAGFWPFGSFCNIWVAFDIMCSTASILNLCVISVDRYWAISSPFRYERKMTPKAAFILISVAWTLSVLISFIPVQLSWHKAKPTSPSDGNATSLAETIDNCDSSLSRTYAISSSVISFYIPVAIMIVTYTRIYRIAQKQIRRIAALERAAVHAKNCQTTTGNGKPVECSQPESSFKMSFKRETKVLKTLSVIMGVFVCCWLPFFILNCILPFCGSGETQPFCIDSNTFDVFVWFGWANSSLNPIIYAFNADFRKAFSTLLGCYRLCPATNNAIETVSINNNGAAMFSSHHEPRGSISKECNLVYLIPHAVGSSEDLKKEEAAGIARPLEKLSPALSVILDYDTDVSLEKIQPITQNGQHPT

| Compound | IC50 [1] | Ki [1] | IC50 (D(4) dopamine receptor) | IC50 [2] | IC50 (D(1A) dopamine receptor; cho) | IC50 [3] | Ki [3] | IC50 [4] | IC50 [5] | Ki [5] | Ki (D(4) dopamine receptor) | Ki [2] | Ki (D(1A) dopamine receptor; cho) | Ki [4] | IC50 (D(1A) dopamine receptor; read-out: IC50) | Ki (D(1A) dopamine receptor; read-out: Ki) |
| --- | --- | --- | --- | --- | --- | --- | --- | --- | --- | --- | --- | --- | --- | --- | --- | --- |
| C[C@]12CCC(=O)C=C1CC[C@@H]1[C@@H]2[C@@H](O)C[C@@]2(C)[C@H]1CC[C@]2(O)C(=O)CO [HYDROCORTISONE] | Not Active | Not Active | Not Active | Not Active | Not Active | Not Active | Not Active | Not Active | Not Active | Not Active |  |  |  |  |  |  |
| POLYVINYL ALCOHOL | Not Active | Not Active | Not Active | Not Active | Not Active | Not Active | Not Active | Not Active | Not Active | Not Active | Not Active | Not Active | Not Active | Not Active |  |  |
| COBALT(II) ACETYLACETONATE | Not Active | Not Active | Not Active | Not Active | Not Active | Not Active | Not Active | Not Active | Not Active | Not Active | Not Active | Not Active | Not Active | Not Active |  |  |
| Nc1nc(N)nc(NC2CC2)n1 [CYROMAZINE] | Not Active | Not Active | Not Active | Not Active | Not Active | Not Active | Not Active | Not Active | Not Active | Not Active |  |  |  |  |  |  |
| CN(C(=O)CCCOc1ccc2[nH]c(=O)ccc2c1)C1CCCCC1 [CILOSTAMIDE] | Not Active | Not Active | Not Active | Not Active | Not Active | Not Active | Not Active | Not Active | Not Active | Not Active |  |  |  |  |  |  |
| CC(C)(Oc1ccc(C2CC2(Cl)Cl)cc1)C(=O)O (stereo not drawn) [CIPROFIBRATE] | Not Active | Not Active | Not Active | Not Active | Not Active | Not Active | Not Active | Not Active | Not Active | Not Active |  |  |  |  |  |  |
| Cc1cn[nH]c1 [FOMEPIZOLE] | Not Active | Not Active | Not Active | Not Active | Not Active | Not Active | Not Active | Not Active | Not Active | Not Active |  |  |  |  |  |  |
| CCc1oc2ccccc2c1C(=O)c1cc(Br)c(O)c(Br)c1 [BENZBROMARONE] | Not Active | Not Active | Not Active | Not Active | Not Active | Not Active | Not Active | Not Active | Not Active | Not Active |  |  |  |  |  |  |
| CN1C[C@H](C(=O)N[C@]2(C)O[C@@]3(O)[C@@H]4CCCN4C(=O)[C@H](Cc4ccccc4)N3C2=O)C[C@@H]2c3cccc4[nH]cc(c34)C[C@H]21 [DIHYDROERGOTAMINE] | Not Active | Not Active | Not Active | Not Active |  | Not Active | Not Active | Not Active | Not Active | Not Active |  |  |  |  | 2390 nM | 1200 nM |
| CNC(=C[N+](=O)[O-])NCCSCc1csc(CN(C)C)n1 [NIZATIDINE] | Not Active | Not Active | Not Active | Not Active | Not Active | Not Active | Not Active | Not Active | Not Active | Not Active |  |  |  |  |  |  |
| CCC[C@@H]1C[C@@H](C(=O)N[C@@H]([C@H]2O[C@H](SC)[C@H](O)[C@@H](O)[C@H]2O)[C@H](C)Cl)N(C)C1 [CLINDAMYCIN] | Not Active | Not Active | Not Active | Not Active | Not Active | Not Active | Not Active | Not Active | Not Active | Not Active |  |  |  |  |  |  |
| CC(=O)O[C@]1(C(C)=O)CC[C@H]2[C@@H]3C=C(Cl)C4=CC(=O)[C@@H]5C[C@@H]5[C@]4(C)[C@H]3CC[C@@]21C [CYPROTERONE ACETATE] | Not Active | Not Active | Not Active | Not Active | Not Active | Not Active | Not Active | Not Active | Not Active | Not Active |  |  |  |  |  |  |
| CN(Cc1cnc2nc(N)nc(N)c2n1)c1ccc(C(=O)N[C@@H](CCC(=O)O)C(=O)O)cc1 [METHOTREXATE] | Not Active | Not Active | Not Active | Not Active | Not Active | Not Active | Not Active | Not Active | Not Active | Not Active |  |  |  |  |  |  |
| C/C=C\c1ccc(O)c(OC)c1 [ISOEUGENOL] | Not Active | Not Active | Not Active | Not Active | Not Active | Not Active | Not Active | Not Active | Not Active | Not Active |  |  |  |  |  |  |
| Cc1cnc(C(=O)NCCc2ccc(S(=O)(=O)NC(=O)NC3CCCCC3)cc2)cn1 [GLIPIZIDE] | Not Active | Not Active | Not Active | Not Active | Not Active | Not Active | Not Active | Not Active | Not Active | Not Active |  |  |  |  |  |  |
| CC(CCc1ccc(O)cc1)NCCc1ccc(O)c(O)c1 (stereo not drawn) [DOBUTAMINE] | Not Active | Not Active | Not Active | Not Active | Not Active | Not Active | Not Active | Not Active | Not Active | Not Active |  |  |  |  |  |  |
| Nc1nc(Cl)nc2c1ncn2[C@H]1C[C@H](O)[C@@H](CO)O1 [CLADRIBINE] | Not Active | Not Active | Not Active | Not Active | Not Active | Not Active | Not Active | Not Active | Not Active | Not Active |  |  |  |  |  |  |
| Cc1cccc(Nc2cc(Cl)nc(SCC(=O)O)n2)c1C [PIRINIXIC ACID] | Not Active | Not Active | Not Active | Not Active | Not Active | Not Active | Not Active | Not Active | Not Active | Not Active |  |  |  |  |  |  |
| INSULIN HUMAN | Not Active | Not Active | Not Active | Not Active | Not Active | Not Active | Not Active | Not Active | Not Active | Not Active | Not Active | Not Active | Not Active | Not Active |  |  |
| CCn1cc(C(=O)O)c(=O)c2cc(F)c(N3CCNCC3)nc21 [ENOXACIN] | Not Active | Not Active | Not Active | Not Active | Not Active | Not Active | Not Active | Not Active | Not Active | Not Active |  |  |  |  |  |  |
| O=C(O)c1cc(=O)c2c(OCC(O)COc3cccc4oc(C(=O)O)cc(=O)c34)cccc2o1 [CROMOLYN] | Not Active | Not Active | Not Active | Not Active | Not Active | Not Active | Not Active | Not Active | Not Active | Not Active |  |  |  |  |  |  |
| CC(=O)OCC(CCn1cnc2cnc(N)nc21)COC(C)=O [FAMCICLOVIR] | Not Active | Not Active | Not Active | Not Active | Not Active | Not Active | Not Active | Not Active | Not Active | Not Active |  |  |  |  |  |  |
| O=P1(N(CCCl)CCCl)NCCCO1 (stereo not drawn) [CYCLOPHOSPHAMIDE ANHYDROUS] | Not Active | Not Active | Not Active | Not Active | Not Active | Not Active | Not Active | Not Active | Not Active | Not Active |  |  |  |  |  |  |
| O=c1cc(-c2ccccc2)oc2ccc3ccccc3c12 [BETA-NAPHTHOFLAVONE] | Not Active | Not Active | Not Active | Not Active | Not Active | Not Active | Not Active | Not Active | Not Active | Not Active |  |  |  |  |  |  |
| CC(C)(Sc1cc(C(C)(C)C)c(O)c(C(C)(C)C)c1)Sc1cc(C(C)(C)C)c(O)c(C(C)(C)C)c1 [PROBUCOL] | Not Active | Not Active | Not Active | Not Active | Not Active | Not Active | Not Active | Not Active | Not Active | Not Active |  |  |  |  |  |  |
